Measurements from patent US7622475B2, “EP2 agonists” (Pfizer Inc, priority 2006, dated 2009).
Read-outs that look alike come from different tables or passages of the source.

What was measured:
[1] = test system: ocular hypertensive non-human primates; assay: IOP change after topical application in ocular hypertensive non-human primates; type: in vivo; conditions: for Tmax: time point of maximum IOP reduction
Procedure: Tables 2 and 3 describe the intraocular pressure (IOP) changes that were seen following topical application of EP2 agonists in ocular hypertensive non-human primates. Typically, compounds in suitable formulations were dosed topically and IOP was measured using tonometry. Changes in IOP between vehicle treatment followed by treatment with EP2 compounds were assessed over time in the dosed hypertensive eye. ΔΔ Emax reflects the difference in IOP from EP2 compound-treated eye over that seen for vehicle-treated eye at the timepoint wherein maximum IOP reduction for compound was seen. The percent ΔΔ Emax was the percentage change in IOP reduction conferred by compound over that for vehicle (set at 100%). Tmax represents the time point at which maximum IOP reduction of compound was observed. […] NS represents not significant. Table 2 compares acids of EP2 compound while Table 3 compares IOP response seen with esters of certain acids. Esters provide better corneal penetration and improved drug exposure in the anterior chamber compared to acids and are therefore dosed at ⅕th the dose for acids […].

[2] = molecular target: recombinant murine EP2 receptor (Mus musculus, UniProt Q62053); conditions: fraction of the affinity of PGE2; cited from earlier work
[3] = test system: other murine EP receptors or DP, TP, FP or IP receptors; conditions: cited from earlier work
newborn piglets = conditions: brief hypoxia, in the presence of PG synthase inhibitors; cited from earlier work
EP2 [4] = molecular target: T1, EP2 (Homo sapiens, UniProt P43116); design: expressed in transfected cells; host or cells: COS cells; conditions: COS cells transfected with the human EP2 receptor; read-out: EC50 for the stimulation of cAMP; cited from earlier work
ciliary muscle = conditions: topical ocular QD for 1 year; treated and contralateral eyes; cited from earlier work
EP2 [5] = molecular target: T1, EP2; assay: EP2 cAMP EC50 (Table 1); type: cell-based
[6] = molecular target: T2, prostaglandin E2 type 2 (EP2) receptors (Homo sapiens, UniProt P43116); assay: Assay for binding to prostaglandin E2 receptors (3H-prostaglandin E2 displacement, membranes of transfected cells); conditions: displacement of 3H-prostaglandin E2
T2 construct: expressed in transfected cells
Procedure: All operations are performed at 4° C. […] These are lysed by sonification with a Branson Sonifier (Model #250, Branson Ultrasonics Corporation, Danbury, Conn.) in 2 fifteen second bursts. Unlysed cells and debris are removed by centrifugation at 100×g for 10 min. Membranes are then harvested by centrifugation at 45,000×g for 30 minutes. Pelleted membranes are resuspended to 3-10 mg protein per ml, protein concentration being determined according to the method of Bradford [Bradford, M., Anal. Biochem., 72, 248 (1976)]. Resuspended membranes are then stored frozen at −80° C. until use.
Frozen membranes as prepared are thawed and diluted to 1 mg protein per ml in Buffer A. One volume of membrane preparation is combined with 0.05 volume test compound or buffer and one volume of 3 nM 3H-prostaglandin E2 (#TRK 431, Amersham, Arlington Heights, Ill.) in Buffer A. The mixture (205 μL total volume) is incubated for 1 hour at 25° C. The membranes are then recovered by filtration through type GF/C glass fiber filters (#1 205401, Wallac, Gaithersburg, Md.) using a Tomtec harvester (Model Mach II/96, Tomtec, Orange, Conn.). The membranes with bound 3H-prostaglandin E2 are trapped by the filter, the buffer and unbound 3H-prostaglandin E2 pass through the filter into waste. Each sample is then washed 3 times with 3 ml of [50 mM Tris-HCl (pH 7.4), 10 mM MgCl2, 1 mM EDTA]. The filters are then dried by heating in a microwave oven. To determine the amount of 3H-prostaglandin bound to the membranes, the dried filters are placed into plastic bags with scintillation fluid and counted in a LKB 1205 Betaplate reader (Wallac, Gaithersburg, Md.). IC50s are determined from the concentration of test compound required to displace 50% of the specifically bound 3H-prostaglandin E2.

glaucomatous dogs = assay: IOP change after topical instillation in glaucomatous dogs; type: in vivo; conditions: single 50 μl drop, @ 6 h, drawing 64 […] ([…]), drawing 65 0.1 mg/ml (0.01%)
Procedure: Typically, compounds in suitable formulations were dosed topically and IOP was measured using tonometry. A single 50 μl drop containing either vehicle or drug was instilled in each eye of glaucomatous dogs and IOP was measured at 1, 2, 4, and 6 hours post dose. A baseline IOP measurement was taken prior to topical instillation of vehicle or drug. Changes in IOP between vehicle treatment followed by treatment with EP2 compounds were assessed over time in the glaucomatous dogs. ΔΔ Emax reflects the difference in IOP±standard error from EP2 compound-treated eye over that seen for vehicle-treated eye at the time point wherein maximum IOP reduction for compound was seen. The percent ΔΔ Emax was the percentage change in IOP reduction conferred by compound over that for vehicle (set at 100%).

[7] = Solid form by powder X-ray diffraction; type: physicochemical; conditions: FIG. 1
Procedure: During analysis, the samples were analyzed from angles of 4 to 40 degrees (θ-2θ) using a scan time of 60 seconds and a scan spot size of 0.5 mm.
The X-Ray diffraction peaks, characterized by peak positions and intensity assignments, have been extracted from the X-ray powder diffractogram of Example 1 and comparative compound 12. One of skill in the art will appreciate that the peak positions (2θ) will show some inter-apparatus variability, typically as much as 0.1 degrees. Accordingly, where peak positions (2θ) are reported, one of skill in the art will recognize that such numbers are intended to encompass such inter-apparatus variability.

[8] = test system: murine astrocyte cultures; conditions: cited from earlier work
[9] = test system: ocular hypertensive non-human primates; assay: IOP change after topical application in ocular hypertensive non-human primates; type: in vivo; conditions: isopropylesters, OHT primates, NT eye

T1 sequence (P43116 whole entry): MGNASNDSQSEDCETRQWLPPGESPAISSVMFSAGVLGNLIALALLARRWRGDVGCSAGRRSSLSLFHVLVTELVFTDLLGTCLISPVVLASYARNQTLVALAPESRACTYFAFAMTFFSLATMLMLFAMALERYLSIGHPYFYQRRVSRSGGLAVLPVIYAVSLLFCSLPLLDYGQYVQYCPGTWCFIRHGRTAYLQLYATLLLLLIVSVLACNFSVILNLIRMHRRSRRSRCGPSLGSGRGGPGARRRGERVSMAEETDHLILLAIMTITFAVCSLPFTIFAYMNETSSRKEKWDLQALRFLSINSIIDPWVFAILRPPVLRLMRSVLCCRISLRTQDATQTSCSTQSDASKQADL
T2 sequence (P43116 whole entry): as above
recombinant murine EP2 receptor, sequence (Q62053 whole entry): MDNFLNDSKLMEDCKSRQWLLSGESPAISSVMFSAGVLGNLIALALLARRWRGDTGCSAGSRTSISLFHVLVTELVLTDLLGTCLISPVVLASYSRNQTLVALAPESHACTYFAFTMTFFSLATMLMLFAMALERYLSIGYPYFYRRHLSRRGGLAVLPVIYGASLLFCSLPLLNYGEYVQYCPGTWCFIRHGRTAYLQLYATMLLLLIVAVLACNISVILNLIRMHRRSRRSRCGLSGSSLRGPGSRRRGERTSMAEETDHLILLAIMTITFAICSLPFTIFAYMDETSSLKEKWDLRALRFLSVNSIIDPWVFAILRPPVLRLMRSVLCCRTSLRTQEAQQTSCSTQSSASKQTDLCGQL

**Q.** What does the source list for `CCCC1([C@H](O)C/C=C/[C@H]2[C@H](O)CC(=O)[C@@H]2CCCCCCC(=O)OC)CCC1` (racemic) [Butaprost, (+/−)-15-Deoxy-16S-hydroxy-17-cyclobutyl PGE1]?
**A.** change in vivo at 0.1 % ([1]; Primates, topical, acid EP2 agonists, Conc 0.1 %, topical, vs vehicle (set at 100%), read-out: ΔΔEmax (%)): -18%; ΔΔEmax (mm Hg) ([1]; acid EP2 agonists, Conc 0.1 %, topical, dosed hypertensive eye vs vehicle): −5.5 mm Hg; Tmax ([1]; acid EP2 agonists, Conc 0.1 %): 5 h; affinity relative to PGE2 [2]: about 1/10; binding to other prostanoid receptors [3]: does not bind appreciably; electrophysiological changes (VEPs and ERGs) (newborn piglets): restoration of electrophysiological changes; EC50 (EP2 [4]): ~5000 nM

**Q.** With `CCCCCC(O)c1ccc(C2CCC(=O)C2CCCCCCC(=O)O)cc1` (stereo not shown) [AH-13205] as the compound, how does the “number of nerve bundles in ciliary muscle” value (ciliary muscle) read?
**A.** Its value is “doubling in the number of nerve bundles in ciliary muscle”.

**Q.** What does the source list for `CC(C)OC(=O)COc1cccc(CN(Cc2ccc(-n3cccn3)cc2)S(=O)(=O)c2cccnc2)c1` [Example 1, isopropyl [3-({[4-(1H-pyrazol-1-yl)benzyl](pyridin-3-yl-sulfonyl)amino}methyl)phenoxy]acetate]?
**A.** EC50 (EP2 [5]): 1.48 nM; IC50 [6]: 10 nM; ΔΔEmax (%) (glaucomatous dogs): −33% @ 6 h; ΔΔEmax (mmHg) (glaucomatous dogs): −7.0 1.2 mmHg @ 6 h; solid form [7]: crystalline form

**Q.** For `CC(C)(C)OC(=O)COc1cccc(CN(Cc2ccc(-n3cccn3)cc2)S(=O)(=O)c2cccnc2)c1` [Example C12, t-butyl [3-({[4-(1H-pyrazol-1-yl)benzyl](pyridin-3-yl-sulfonyl)amino}methyl)phenoxy]acetate, reference compound], which EC50 (EP2 [5]) is on record?
**A.** Its EC50 is 1.48 nM.

**Q.** What about the IC50 [6] of the same compound?
**A.** Its IC50 is 10 nM.

**Q.** What about the ΔΔEmax (%) (glaucomatous dogs) of the same compound?
**A.** The ΔΔEmax (%) was −34% @ 6 h.

**Q.** And the “ΔΔEmax (mmHg)” value (glaucomatous dogs)?
**A.** Its value is −8.0 1.7 mmHg @ 6 h.

**Q.** And the solid form [7]?
**A.** The solid form was “gummy material”.

**Q.** Which “synthesis and secretion of BDNF and NGF” value [8] does the source give for `CCCCC[C@H](O)/C=C/[C@H]1[C@H](O)CC(=O)[C@@H]1C/C=C\CCCC(=O)O` [PGE2, prostaglandin E2] here?
**A.** Its value is “stimulate synthesis and secretion of brain-derived neurotrophic factor (BDNF) and nerve growth factor (NGF)”.

**Q.** With `CC(C)OC(=O)COc1cccc(CN(Cc2ccc(-n3cccn3)cc2)S(=O)(=O)c2cccnc2)c1` [drawing 61] as the compound, how does the “ΔΔEmax (mmHg)” value ([1]; isopropylesters, OHT primates, OHT eye, 0.1 mg/ml topical) read?
**A.** The value was −14 mmHg.

**Q.** What about the “Tmax” value ([1]; isopropylesters, OHT primates) of the same compound?
**A.** The value was 6 h.

**Q.** What about the “ΔΔEmax (mmHg)” value [9] of the same compound?
**A.** The value was −7.5 mmHg.
